We go through 35 molecules from US20040023972A1, “Use of substituted imidazo[1,2-a]-pyridin-, -pyrimidin-and-pyrazin-3-yl-amine derivatives in the preparation of medicaments for inhibiting NOS” (Gruenenthal GmbH, priority 2000, published 2004).

Where a name gives a salt, the structure may show the parent alone.

The target of the first assay is T1, NO synthase (Rattus norvegicus, UniProt P29476).
T1 construct: the supernatant was then removed by decantation and frozen in portions at −80° C; from tissue; host or cells: rat cerebellum, 20,000 g supernatant of homogenate
Description: HTS-NOS assay (NOS assay): conversion of radioactive arginine, cation-exchanger filter plate. The assay is classed as biochemical. Particulars: 10 μM. Put shortly:
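Rat cerebellum supernatant as NOS source, incubated with radiolabelled arginine plus cofactors including NADPH at 25 °C for 5-60 min depending on enzyme activity. Unconverted arginine was trapped on a cation-exchange filter plate, citrulline washed out, and bound arginine counted by scintillation; % inhibition versus no-compound reactions.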
As to `C#[N+]CCCCCCN(C(C)=O)c1c(-c2ccccn2)nc2cc(C)cc(C)n12` [Example 289, {6-[acetyl-(5,7-dimethyl-2-pyridin-2-yl-imidazo[1,2-a]pyridin-3-yl)-amino]-hexyl}-methylidyne-ammonium], the “HTS-NOS assay: % inhibition (10 μM)” value came to 63%.

As for “[6-(acetyl-{7-methyl-2-[5-(2-nitro-phenyl)-furan-2-yl]-imidazo[1,2-a]pyridin-3-yl}-amino)-hexyl]-methylidyne-ammonium [Example 215]”, the “HTS-NOS assay: % inhibition (10 μM)” value was found to be 50%.

Still in this assay, the particulars now being: Table 5; concentration not given.
On to `Cc1cc(C)n2c(NC3CCCC3)c(-c3ccc(Br)cc3F)nc2c1.Cl` [Example 304, [2-(4-Bromo-2-fluoro-phenyl)-5,7-dimethyl-imidazo[1,2-a]pyridin-3-yl]-cyclopentyl-amine hydrochloride], for which the “NOS assay % inhibition” value is recorded as 56%.

For the molecule `Cc1cc(C)n2c(NC3CCCC3)c(-c3ccc(-c4ccccc4[N+](=O)[O-])o3)nc2c1.Cl` [Example 305, Cyclopentyl-{5,7-dimethyl-2-[5-(2-nitro-phenyl)-furan-2-yl]-imidazo[1,2-a]pyridin-3-yl}-amine hydrochloride], the “NOS assay % inhibition” value is 55%.

Regarding `Cc1cc(C)n2c(NC3CCCC3)c(-c3ccc(-c4ccc(Cl)cc4)o3)nc2c1.Cl` [Example 306, {2-[5-(4-Chlorophenyl)-furan-2-yl]-5,7-dimethyl-imidazo[1,2-a]pyridin-3-yl}-cyclopentyl-amine hydrochloride], the “NOS assay % inhibition” value is 73%.

Turning to `Cc1cc(C)n2c(NC3CCCC3)c(-c3ccoc3)nc2c1.Cl` [Example 307, Cyclopentyl-(2-furan-3-yl-5,7-dimethyl-imidazo(1,2-a]pyridin-3-yl)-amine hydrochloride], the “NOS assay % inhibition” value stood at 57%.

`Cc1cc(C)n2c(NC(C)(C)CC(C)(C)C)c(-c3ccoc3)nc2c1.Cl` [Example 308, (2-Furan-3-yl-5,7-dimethyl-imidazo[1,2-a]-pyridin-3-yl)-(1,1,3,3-tetramethyl-butyl)-amine hydrochloride]: the “NOS assay % inhibition” value is recorded as 50%.

Turning to `Cc1ccn2c(NCc3ccccc3)c(-c3ccsc3)nc2c1.Cl` [Example 309, Benzyl-(7-methyl-2-thiophen-3-yl-imidazo-[1,2-a]pyridin-3-yl)-amine hydrochloride], the “NOS assay % inhibition” value came to 45%.

As for `Cc1ccn2c(NC(C)(C)CC(C)(C)C)c(-c3ccoc3)nc2c1.Cl` [Example 311, (2-Furan-3-yl-7-methyl-imidazo[1,2-a]pyridin-3-yl)-(1,1,3,3-tetramethyl-butyl)-amine hydrochloride], the “NOS assay % inhibition” value was found to be 45%.

As to `Cc1cc(C)n2c(NC(C)(C)CC(C)(C)C)c(-c3ccsc3)nc2c1.Cl` [Example 312, (5,7-Dimethyl-2-thiophen-3-yl-imidazo[1,2-a]-pyridin-3-yl)-(1,1,3,3-tetramethyl-butyl)-amine hydrochloride], the “NOS assay % inhibition” value is listed as 74%.

Staying with this assay, now noted: Table 5; concentration not given; hydrochloride.
Take `Cc1cc(C)n2c(NC3CCCCC3)c(-c3ccoc3)nc2c1.Cl` [Example 302, Cyclohexyl-(2-furan-3-yl-5,7-dimethyl-imidazo-[1,2-a]pyridin-3-yl)-amine hydrochloride]: the “NOS assay % inhibition” value is given as 54%.

Regarding `Cc1cc(C)n2c(NC3CCCCC3)c(-c3ccoc3)nc2c1.Cl` [Example 310, Cyclohexyl-(2-furan-3-yl-5,7-dimethyl-imidazo-[1,2-a]pyridin-3-yl)-amine hydrochloride], the “NOS assay % inhibition” value came out at 52%.

The same assay, now with this note: read-out: HTS-NOS assay: % inhibition (10 μM).
As to `CC(=O)N(c1c(-c2ccc(C(=O)O)o2)nc2ccc(C)cn12)C(C)(C)CC(C)(C)C` [Example 282, 5-{3-[acetyl-(1,1,3,3-tetramethyl-butyl)-amino]-6-methyl-imidazo[1,2-a]pyridin-2-yl}-furan-2-carboxylic acid], the inhibition at 10 µM was 51%.

Regarding `CCCCN(C(C)=O)c1c(-c2cc(OC)c(OC)c(OC)c2)nc2cnccn12` [Example 283, N-butyl-N-[2-(3,4,5-trimethoxy-phenyl)-imidazo[1,2-a]pyrazin-3-yl]-acetamide], the inhibition at 10 µM came out at 51%.

With `CCCCN(C(C)=O)c1c(-c2cccc(O)c2)nc2ncccn12` [Example 284, N-butyl-N-[2-(3-hydroxy-phenyl)-imidazo[1,2-a]pyrimidin-3-yl]-acetamide], the inhibition at 10 µM stood at 51%.

As to `COC(=O)CN(C(C)=O)c1c(-c2ccccc2C)nc2ncccn12` [Example 285, [acetyl-(2-o-tolyl-imidazo[1,2-a]pyrimidin-3-yl)-amino]-acetic acid methyl ester], the inhibition at 10 µM came to 51%.

In the case of `CC(=O)N(c1c(-c2cc3ccccc3o2)nc2c(C)cccn12)C(C)(C)CC(C)(C)C` [Example 286, N-(2-benzofuran-2-yl-8-methyl-imidazo[1,2-a]pyridin-3-yl)-N-(1,1,3,3-tetramethyl-butyl)-acetamide], the inhibition at 10 µM came out at 59%.

Turning to `CCCCN(C(C)=O)c1c(-c2ccc(C)cc2)nc2nc(C)ccn12` [Example 287, N-butyl-N-(7-methyl-2-p-tolyl-imidazo[1,2-a]pyrimidin-3-yl)-acetamide], the inhibition at 10 µM was found to be 58%.

For `CC(=O)N(c1c(C)nc2c(Br)cc(Br)cn12)C(C)(C)C` [Example 288, N-tert-butyl-N-(6,8-dibromo-2-methyl-imidazo[1,2-a]pyridin-3-yl)-acetamide], the inhibition at 10 µM came to 62%.

For the molecule `CCOc1ccc2ccccc2c1-c1nc2cc(C)ccn2c1N(C(C)=O)C(C)(C)C` [Example 290, N-tert-butyl-N-[2-(2-ethoxy-naphthalen-1-yl)-7-methyl-imidazo[1,2-a]pyridin-3-yl]-acetamide], the inhibition at 10 µM stood at 67%.

For `CC(=O)N(c1c(-c2ccc(F)cc2Cl)nc2ccccn12)C(C)(C)C` [Example 291, N-tert-butyl-N-[2-(2-chloro-4-fluoro-phenyl)-imidazo[1,2-a]pyridin-3-yl]-acetamide], the inhibition at 10 µM is 53%.

In the case of `CCc1ccn2c(NCc3ccccc3OC)c(-c3ccc([N+](=O)[O-])o3)nc2c1` [Example 313, [7-Ethyl-2-(5-nitro-furan-2-yl)-imidazo[1,2-a]pyridin-3-yl]-(2-methoxy-benzyl)-amine], the inhibition at 10 µM was 32%.

Consider `CCc1ccn2c(NCc3ccccc3Cl)c(-c3ccc([N+](=O)[O-])o3)nc2c1` [Example 314, (2-Chlorobenzyl)-[7-ethyl-2-(5-nitro-furan-2-yl)-imidazo[1,2-a]pyridin-3-yl]-amine], for which the inhibition at 10 µM worked out at 47%.

Regarding `CCc1ccn2c(NCc3ccccc3OC)c(-c3ccc(C)o3)nc2c1` [Example 315, [7-Ethyl-2-(5-methyl-furan-2-yl)-imidazo[1,2-a]pyridin-3-yl]-(2-methoxy-benzyl)-amine], the inhibition at 10 µM came out at 32%.

With `CCc1ccn2c(NCc3ccccc3Cl)c(-c3ccco3)nc2c1` [Example 316, (2-Chloro-benzyl)-(7-ethyl-2-furan-2-yl-imidazo[1,2-a]pyridin-3-yl)-amine], the inhibition at 10 µM came to 52%.

In the case of `CCc1ccn2c(Nc3ccc(F)c(Cl)c3)c(-c3ccc(C)o3)nc2c1` [Example 317, (3-Chloro-4-fluoro-phenyl)-[7-ethyl-2-(5-methyl-furan-2-yl)-imidazo[1,2-a]pyridin-3-yl]-amine], the inhibition at 10 µM stood at 59%.

For the molecule `CCc1ccn2c(Nc3ccc(F)c(Cl)c3)c(-c3cc4ccccc4o3)nc2c1` [Example 318, (2-Benzofuran-2-yl-7-ethyl-imidazo[1,2-a]-pyridin-3-yl)-(3-chloro-4-fluoro-phenyl)-amine], the inhibition at 10 µM was 52%.

On to `CCc1ccn2c(Nc3cccc(Cl)c3)c(-c3cc4ccccc4o3)nc2c1` [Example 319, (2-Benzofuran-2-yl-7-ethyl-imidazo[1,2-a]-pyridin-3-yl)-(3-chloro-phenyl)-amine], for which the inhibition at 10 µM was found to be 53%.

Regarding `CCc1ccn2c(Nc3ccc(F)c(Cl)c3)c(-c3ccc(-c4cccc(Cl)c4)o3)nc2c1` [Example 320, (3-Chloro-4-fluorophenyl)-{2-[5-(3-chloro-phenyl)-furan-2-yl]-7-ethyl-imidazo[1,2-a]-pyridin-3-yl}-amine], the inhibition at 10 µM amounted to 52%.

With `CCc1ccn2c(Nc3ccc(F)c(Cl)c3)c(-c3ccc(-c4ccccc4Cl)o3)nc2c1` [Example 321, (3-Chloro-4-fluorophenyl)-{2-[5-(2-chlorophenyl)-furan-2-yl]-7-ethyl-imidazo[1,2-a]pyridin-3-yl}-amine], the inhibition at 10 µM stood at 50%.

On to `CCc1ccn2c(Nc3ccc(F)c(Cl)c3)c(-c3cc(C)c(C)o3)nc2c1` [Example 322, (3-Chloro-4-fluorophenyl)-[2-(4,5-dimethyl-furan-2-yl)-7-ethyl-imidazo[1,2-a]pyridin-3-yl]-amine], for which the inhibition at 10 µM was determined as 49%.

In the next assay the target is NOS (Rattus norvegicus, UniProt P29476). The experiment in a line: Citrulline assay (Bredt and Snyder).
Details: not given
In kind it is biochemical. Here is the method:
This assay was carried out as described by D. S. Bredt and S. H. Snyder (Proc. Natl. Acad. Sci. USA (1990), 87, 682-685).
With `Cc1ccn2c(NC3CCCCC3)c(-c3ccccc3C(F)(F)F)nc2c1` [Example 292, Cyclohexyl-[7-methyl-2-(2-trifluorO-methyl-phenyl)-imidazo[1,2-a]pyridin-3-yl]-amine; hydrochloride], half-maximal inhibition (IC50) was put at 2.4 µM.

Regarding `Cc1cc(C)n2c(NC3CCCCC3)c(-c3ccncc3)nc2c1` [Example 295, Cyclohexyl-(5,7-dimethyl-2-pyridin-4-yl-imidazo[1,2-a]pyridin-3-yl)-amine; hydrochloride], inhibition was half-maximal at 9.2 µM (IC50).

Regarding `Cc1cc(C)n2c(NC(C)(C)CC(C)(C)C)c(-c3ccco3)nc2c1` [Example 296, (2-Furan-2-yl-5,7-dimethyl-imidazo[1,2-a]-pyridin-3-yl)-(1,1,3,3-tetramethyl-butyl)-amine; hydrochloride], the half-inhibitory concentration (IC50) came out at 2.5 µM.

`Cc1ccn2c(NC(C)(C)CC(C)(C)C)c(-c3ccccc3F)nc2c1` [Example 298, [2-(2-Fluorophenyl)-7-methyl-imidazo[1,2-a]pyridin-3-yl]-(1,1,3,3-tetramethyl-butyl)-amine; hydrochloride] registered an IC50 of 4.3 µM.

What is called inhibition is the share of the control response that was lost under treatment. As usually defined, the IC50 is the midpoint of a concentration-inhibition curve. A high value points to weaker potency in that assay.
